From paper PMC10969742, “A Phase I Study of the Oral Dual-Acting Pan-PI3K/mTOR Inhibitor Bimiralisib in Patients with Advanced Solid Tumors” (Cancers, 2024)
“Also recorded” adds a separate entry of the source. Like-named read-outs stand apart in the source and are kept apart here.

Key:
[1] = tested on: patients with advanced solid tumors; test: Phase 1 3 + 3 dose escalation: DLTs and MTD determination; assay type: in vivo
Experimental: (§1) The primary objective of the study was to determine the MTD of bimiralisib administered according to three different dosing schedules. Bimiralisib was formulated as 20 mg and 80 mg capsules for oral administration. The first dosing schedule to be evaluated was continuous (once daily) dosing over a 21-day cycle. […] Patients enrolled in the continuous schedule and intermittent schedule A received a single lead-in dose, administered on […] prior to the start of the first 21-day treatment cycle, to characterize single-dose pharmacokinetics. Based on the previous first-in-human trial with bimiralisib, together with the expected toxicity profile of PI3K/mTOR inhibitors, the starting dose (dose-level 1) of bimiralisib in Study PQR309-003 was set at 80 mg daily.
Enrollment of cohorts into the dose escalation followed a typical 3 + 3 design, with escalation/de-escalation based on the dose-limiting toxicities observed as described in Table 1 and Table 2. Up to 5 dose levels were planned in the continuous schedule to a maximum of 180 mg daily. For the intermittent schedules, up to 7 dose levels were planned, to a maximum of 240 mg daily. One dose level for de-escalation was planned for all schedules. Patient cohorts, consisting initially of three patients, were enrolled depending on the safety and tolerability of the initial cohort. Patients were treated until disease progression, unacceptable toxicity, patient’s request for withdrawal, investigator judgment, or death, whichever came first.
(§2) Safety was monitored by physical examination, vital signs, weight, electrocardiogram, ECOG performance status, laboratory evaluations (including glucose monitoring), and patient self-reported mood questionnaires, as well as AEs. All AEs were coded with NCI Common Terminology Criteria for Adverse Events (CTCAE) v4.03 [27]. The MTD was defined as the maximum dose level at which ≤1/6 patients have DLTs. A DLT was defined by the occurrence of grade 3 or 4 AE that is possibly, probably, or definitely related to bimiralisib within the first 21 days of treatment. Bimiralisib treatment was interrupted if patients experienced any DLTs. If the patient derived benefit from the treatment as determined by the investigator, treatment could be resumed at a lower dose in agreement with the study sponsor.

[2] = tested on: patients with advanced solid tumors; assay type: in vivo
Experimental: This was a Phase 1, open-label, multi-center, non-randomized, dose escalation study evaluating DLTs, tolerability, PK, and preliminary efficacy of bimiralisib in the treatment of patients with advanced solid tumors for which no standard curative or life-prolonging therapy is available. This study was conducted in the US (MD Anderson Cancer Center, Houston; Mayo Clinic Rochester; Roswell Park Comprehensive Cancer Center, Buffalo; University Hospitals of Cleveland), Spain (Vall Hebron University Hospital), Switzerland (Basel University Hospital), and UK (University College London Hospitals NHS Trust and Oxford Universities NHS Trust).
as §1, §2
Patients were discontinued from trial if they had evidence of clinical, symptomatic, or radiographic disease progression or relapse, unacceptable drug related AEs, non-compliance to the protocol, voluntary withdrawal, or pregnancy. Treatment compliance was established with patient diaries and records of medication used and dosages administered.
Descriptive statistics were used to present the data. Categorical data were summarized in contingency tables presenting frequencies and percentages. Continuous data were summarized using the number of non-missing values (n), mean, standard deviation (SD), median, Q1, Q3, minimum and maximum values, as appropriate. Data were analyzed using SAS. No tests of significance were planned to compare study treatment groups on baseline data. The efficacy and safety analysis set comprised all patients who receive ≥1 dose of bimiralisib.

Nc1cc(C(F)(F)F)c(-c2nc(N3CCOCC3)nc(N3CCOCC3)n2)cn1 [bimiralisib, 5-(4,6-Dimorpholino-1,3,5-triazin-2-yl)-4-(trifluoromethyl)pyridin-2-amine]
Maximum tolerated dose (MTD) ([1]; continuous schedule (once daily)): 80 mg | Dose-limiting toxicity (DLT), kind ([1]; in vivo): grade three fatigue | Patients with dose interruptions or discontinuation due to treatment-related AEs during first 21-day dosing cycle ([1]; in vivo): Four of these five | Maximum tolerated dose (MTD) ([1]; intermittent schedules A and B, up to 200 mg): No MTD was reached; also recorded: neither intermittent schedule reached MTD | Any TEAE ([2]; Continuous (n = 21)): 21 (100) n (%) | Any drug-related AE ([2]; Continuous (n = 21)): 21 (100) n (%) | Any drug-related grade ≥ 3 AE ([2]; Continuous (n = 21)): 11 (52.4) n (%) | Any drug-related serious AE ([2]; Continuous (n = 21)): 2 (10) n (%) | Any grade ≥ 3 TEAE ([2]; Continuous (n = 21)): 17 (81) n (%) | Any serious AE ([2]; Continuous (n = 21)): 9 (43) n (%) | Common TEAE: ALT elevation ([2]; Continuous (n = 21)): 1 (4.76) n (%) | Common TEAE: Abdominal pain ([2]; Continuous (n = 21)): 1 (4.76) n (%) | Common TEAE: Anemia ([2]; Continuous (n = 21)): 0 (0) n (%) | Common TEAE: Anxiety ([2]; Continuous (n = 21)): 5 (23.8) n (%) | Common TEAE: Ascites ([2]; Continuous (n = 21)): 0 (0) n (%) | Common TEAE: Asthenia ([2]; Continuous (n = 21)): 6 (28.6) n (%) | Common TEAE: Back pain ([2]; Continuous (n = 21)): 4 (19.1) n (%) | Common TEAE: Cachexia ([2]; Continuous (n = 21)): 4 (19.1) n (%) | Common TEAE: Cough ([2]; Continuous (n = 21)): 2 (9.5) n (%) | Common TEAE: Decreased appetite ([2]; Continuous (n = 21)): 11 (52.4) n (%) | Common TEAE: Dehydration ([2]; Continuous (n = 21)): 6 (28.6) n (%) | Common TEAE: Depression ([2]; Continuous (n = 21)): 5 (23.8) n (%) | Common TEAE: Diarrhea ([2]; Continuous (n = 21)): 10 (47.6) n (%) | Common TEAE: Disturbance attention ([2]; Continuous (n = 21)): 11 (52.4) n (%) | Common TEAE: Dry Mouth ([2]; Continuous (n = 21)): 10 (47.6) n (%) | Common TEAE: Dry skin ([2]; Continuous (n = 21)): 7 (33.3) n (%) | Common TEAE: Dysgeusia ([2]; Continuous (n = 21)): 4 (19.1) n (%) | Common TEAE: Dyspepsia ([2]; Continuous (n = 21)): 1 (4.76) n (%) | Common TEAE: Dyspnea ([2]; Continuous (n = 21)): 4 (19.1) n (%) | Common TEAE: Fatigue ([2]; Continuous (n = 21)): 13 (61.9) n (%) | Common TEAE: Headache ([2]; Continuous (n = 21)): 0 (0) n (%) | Common TEAE: Hyperglycemia ([2]; Continuous (n = 21)): 16 (76.2) n (%) | Common TEAE: Hyperinsulinemia ([2]; Continuous (n = 21)): 7 (33.3) n (%) | Common TEAE: Hyperkalemia ([2]; Continuous (n = 21)): 0 (0) n (%) | Common TEAE: Hyperphosphatasemia ([2]; Continuous (n = 21)): 1 (4.76) n (%) | Common TEAE: Hypokalemia ([2]; Continuous (n = 21)): 6 (28.6) n (%) | Common TEAE: Irritability ([2]; Continuous (n = 21)): 0 (0) n (%) | Common TEAE: Malaise ([2]; Continuous (n = 21)): 4 (19.1) n (%) | Common TEAE: Mucosal Inflammation ([2]; Continuous (n = 21)): 0 (0) n (%) | Common TEAE: Neck pain ([2]; Continuous (n = 21)): 0 (0) n (%) | Common TEAE: Pruritus ([2]; Continuous (n = 21)): 6 (28.6) n (%) | Common TEAE: Rash ([2]; Continuous (n = 21)): 4 (19.1) n (%) | Common TEAE: Tachycardia ([2]; Continuous (n = 21)): 4 (19.1) n (%) | Common TEAE: Upper respiratory tract infection ([2]; Continuous (n = 21)): 1 (4.76) n (%) | Common TEAE: Vomiting ([2]; Continuous (n = 21)): 10 (47.6) n (%) | Common TEAE: Weight decrease ([2]; Continuous (n = 21)): 11 (52.4) n (%) | Grade ≥ 3 TEAE: ALT elevation ([2]; Continuous (n = 21)): 1 (4.8) n (%) | Grade ≥ 3 TEAE: Dehydration ([2]; Continuous (n = 21)): 4 (19) n (%) | Grade ≥ 3 TEAE: Fatigue ([2]; Continuous (n = 21)): 7 (33.3) n (%) | Grade ≥ 3 TEAE: Hyperglycemia ([2]; Continuous (n = 21)): 6 (28.6) n (%) | Patients discontinuing study due to AE ([2]; Continuous (n = 21)): 5 (24.0%) n (%) | Study discontinuation due to AE: Dehydration ([2]; Continuous (n = 21)): 2 (9.5%) n (%) | Study discontinuation due to AE: Ejection Fraction decreased ([2]; Continuous (n = 21)): 1 (4.8%) n (%) | Study discontinuation due to AE: Fatigue ([2]; Continuous (n = 21)): 3 (14.3%) n (%) | Study discontinuation due to AE: Tumor pain ([2]; Continuous (n = 21)): 1 (4.8%) n (%) | Treatment-related death ([2]; Continuous (n = 21)): 0 (0) n (%) | Common TEAE: Upper respiratory tract infection ([2]; Intermittent A, n = 25): 3 (12) n (%) | Study discontinuation due to AE: Urinary Tract Infection ([2]; Intermittent A, n = 25): 1 (4.0%) n (%) | Treatment-related death ([2]; Intermittent A, n = 25): 0 (0) n (%) | Common TEAE: Upper respiratory tract infection ([2]; Intermittent B, n = 24): 1 (4.2) n (%) | Treatment-related death ([2]; Intermittent B, n = 24): 0 (0) n (%) | Common TEAE: Upper respiratory tract infection ([2]; Total n = 70): 5 (7.1) n (%) | Study discontinuation due to AE: Urinary Tract Infection ([2]; Total n = 70): 1 (1.4%) n (%) | Treatment-related death ([2]; Total n = 70): 0 (0) n (%) | Patients who died during the study ([2]; all patients, 19 patients): 27.1% | Grade > 3 TEAE fatigue, frequency ([2]; continuous dosing): 33.3% | Grade > 3 TEAE hyperglycemia, frequency ([2]; continuous dosing): 28.6% | Patients experiencing Grade > 3 TEAEs ([2]; continuous dosing): 81% | Patients who discontinued due to treatment-related fatigue ([2]; continuous dosing): 2 patients | Patients who discontinued the study due to AEs ([2]; continuous dosing): 5 patients | Treatment-emergent AE hyperglycemia, frequency ([2]; continuous schedule): 76.2% | Dose reduction due to TEAEs ([2]; continuous schedule, n = 2): 10% | Dose interruption due to TEAEs ([2]; continuous schedule, n = 11): 52% | Discontinued study treatment: AEs ([2]; human, in vivo): 12.9% | Grade > 3 TEAE hyperglycemia, frequency ([2]; human, in vivo): 12.5% | Patients experiencing one or more TEAEs ([2]; human, in vivo): 99% | Patients reporting one or more serious adverse events (SAEs) ([2]; human, in vivo): 40% | Patients who discontinued due to treatment-related fatigue ([2]; human, in vivo): 1 patients | Patients who discontinued the study due to AEs ([2]; human, in vivo): 3 patients | Patients with TEAEs related to the study drug ([2]; human, in vivo): 91% | SAEs considered related to study drug ([2]; human, in vivo): 6% | Study discontinuation due to AE: Dehydration ([2]; human, in vivo): 2 (2.8%) n (%) | Study discontinuation due to AE: Ejection Fraction decreased ([2]; human, in vivo): 1 (1.4%) n (%) | Study discontinuation due to AE: Tumor pain ([2]; human, in vivo): 1 (1.4%) n (%) | Treatment-emergent AE nausea, frequency ([2]; human, in vivo): 56–62.5% | Patients who discontinued due to AEs considered to be treatment-related ([2]; in vivo): five | SAEs considered related to study drug, number ([2]; in vivo): two | Grade > 3 TEAE fatigue, frequency ([2]; intermittent schedule A): 0% | Grade > 3 TEAE hyperglycemia, frequency ([2]; intermittent schedule A): 12% | Patients experiencing Grade > 3 TEAEs ([2]; intermittent schedule A): 56% | Patients who discontinued the study due to AEs ([2]; intermittent schedule A): 1 patients | SAEs considered related to study drug, number ([2]; intermittent schedule A): zero | Dose reduction due to TEAEs ([2]; intermittent schedule A, n = 0): 0% | Dose interruption due to TEAEs ([2]; intermittent schedule A, n = 9): 36% | Grade > 3 TEAE fatigue, frequency ([2]; intermittent schedule B): 8.3% | SAEs considered related to study drug, number ([2]; intermittent schedule B (diarrhea and hyperglycemia)): two | Dose reduction due to TEAEs ([2]; intermittent schedule B, n = 1): 4% | Dose interruption due to TEAEs ([2]; intermittent schedule B, n = 9): 38% | Deaths due to disease progression ([2]; of 19 deaths during the study): 16 patients | Deaths due to other reasons unrelated to bimiralisib (vessel rupture, sepsis, new small cell carcinoma) ([2]; of 19 deaths during the study): 3 patients
